Values joined by “and” are separate entries in the source; they are usually repeats but may differ in a detail not shown here. Identical values can stand only once.

The nature of data set [1]: Uptake of pyrrolizidine alkaloids into cabbage plants grown in silica sand. It counts as in vivo, Cabbage brassica. The settings on record: cabbage treated with composition of Grind Number 3 watered onto pots. The protocol: Cabbage brassica were tested with the pesticidal composition of Grind Number 3 of Example 1 watered onto the pots in which the trial cabbage plants were grown in silica sand.

Data set [2] in a line: Uptake of pyrrolizidine alkaloids into endophyte free Fescue plants after watering composition onto roots. It counts as in vivo. Particulars: leaf sub-sample after 21 days; for Pyrrolizidine Alkaloid Content, Average: average of 5 endophyte free Fescue plants, Grinding Number 1 composition watered on roots; for Pyrrolizidine Alkaloid Content: individual endophyte free Fescue plants 1-5, 100 ml Grinding Number 1 composition watered on roots every second day. The protocol:
(§1) Pesticidal composition from Grinding Number 1 of Example 1 was watered onto the roots of endophyte free Fescue and Ryegrass plants grown in a glasshouse under controlled conditions into silica sand filled pots. Control plants were included in the plant samples and were watered with nil endophyte ground extract containing no pesticidal composition. Trial plants were each watered with 100 ml of each composition every second day with nutrient watered on alternate days. After 21 days, a sub-sample of leaf material was analysed to determine the uptake of pesticidal composition into the plants tested.
(§2) The results shown below in Table 2 for endophyte free Fescue plants and Table 3 for endophyte free Ryegrass plants clearly indicate transfer of the measured pyrrolizidine alkaloid compounds from the composition and into the plants via their root system

Data set [3] can be described thus: Uptake of pyrrolizidine alkaloids into endophyte free Ryegrass plants after watering composition onto roots. The class given is in vivo. Particulars: leaf sub-sample after 21 days; for Pyrrolizidine Alkaloid Content, Average: average of 5 endophyte free Ryegrass plants, Grinding Number 1 composition watered on roots; for Pyrrolizidine Alkaloid Content: individual endophyte free Ryegrass plants 1-5, 100 ml Grinding Number 1 composition watered on roots every second day. The protocol: as §1, §2

With `CC(=O)N(C)[C@@H]1[C@H]2[C@@H]3CCN2C[C@H]1O3` [NAL, N-acetylloline], the “Pyrrolizidine Alkaloid Content” value is 6 mg/kg or ppm in data set [1]; 56 mg/kg or ppm and 38 mg/kg or ppm and 119 mg/kg or ppm and 69 mg/kg or ppm and 95 mg/kg or ppm in data set [2]; 40 mg/kg or ppm and 37 mg/kg or ppm and 214 mg/kg or ppm and 87 mg/kg or ppm and 84 mg/kg or ppm in data set [3]. Also, the figures for the “Pyrrolizidine Alkaloid Content, Average” value in data set [2] and in data set [3] were 75 mg/kg or ppm and 92 mg/kg or ppm, respectively.
Regarding `CC(=O)N[C@H]1[C@H]2[C@@H]3CCN2C[C@H]1O3` [NANL, N-acetylnorloline], the “Pyrrolizidine Alkaloid Content” value in data set [1] was 0 mg/kg or ppm; in data set [2] it was 0 mg/kg or ppm; in data set [3], 0 mg/kg or ppm (3×) and 44 mg/kg or ppm and 27 mg/kg or ppm. The “Pyrrolizidine Alkaloid Content, Average” value in data set [2] is 0 mg/kg or ppm; in data set [3], 14 mg/kg or ppm.
As to `CN(C=O)C1C2[C@@H]3CCN2C[C@H]1O3` (stereo partly drawn) [NFL, N-formylloline], the “Pyrrolizidine Alkaloid Content” value in data set [1] was 148 mg/kg or ppm; in data set [2], 405 mg/kg or ppm and 382 mg/kg or ppm and 648 mg/kg or ppm and 479 mg/kg or ppm and 482 mg/kg or ppm; in data set [3], 352 mg/kg or ppm and 340 mg/kg or ppm and 1152 mg/kg or ppm and 697 mg/kg or ppm and 680 mg/kg or ppm. The “Pyrrolizidine Alkaloid Content, Average” value in data set [2] is reported as 479 mg/kg or ppm; in data set [3], 644 mg/kg or ppm.

Source of the values: patent publication US10149476B2, “Pesticidal plant extract containing loline derivatives” (GRASSLANZ TECHNOLOGY LTD, priority 2007, dated 2018).
